Our source for the Mmp-2 expression, Mmp-9 expression and Mmp-13 expression values is patent US20210220450A1, “TREATMENT OF AN IOP CONDITION” (The Research Foundation for The State University of New York, priority 2013, published 2021).

The test system of assay [1] is Mmp-2, Mmp-9, Mmp-13. The assay is described as follows: Mmp expression in Tg-MYOCY437H angle ring tissue (Example 19). The class given is in vivo, mouse. The settings on record: vs BSA treated eyes. On the procedure: Eyes were flash frozen in liquid nitrogen after outflow facility determination and subsequently dissected on ice to obtain the angle ring tissues containing the TM, as previously described (Kumar, Shah et al. 2013). Dissected TM tissues were immersed in RNAlater solution (Invitrogen, Waltham, Mass., USA) and then snap-frozen and stored at −80° C. until RNA extraction. Tissue collected was pooled (four eyes) and homogenized in TRIzol reagent for RNA isolation, per manufacturer's instructions (Life Technologies, Carlsbad, Calif., USA). RNA concentration was determined with a Nanodrop ND-1000 Spectrophotometer (Thermo Scientific, Wilmington, Del., USA). cDNA was synthesized by using High-Capacity cDNA Reverse Transcription Kit (Applied Biosystems, Waltham, Mass., USA) according to manufacturer's protocol. Quantitative real-time PCR (qRT-PCR) was performed by using Green-2-Go qPCR Mastermix-ROX (Bio Basic, Amherst, N.Y., USA) on a QuantStudio 6 Flex thermal cycler (Applied Biosystems, Carlsbad, Calif., USA). mRNA expression of Plat, Plau, Pai-1, Mmp-2, Mmp-9, and Mmp-13 in angle ring tissues was determined. Primers were designed by using Primer-BLAST (https://www.ncbi.nlm.nih.gov/tools/primer-blast/index.cgi?LINK_LOC=BlastHome; in the public domain); primer sequences are listed in Table 2. Primer specificity was confirmed by agarose gel electrophoresis and multiple-sized amplification products were absent on inspection of melting curves. Target mRNA expression values were normalized to the expression levels of Rps11 (ribosomal protein S11). The relative fold change was calculated by using the ΔΔCt method (Hu, Wang et al. 2015). Outliers identified via the Thompson Tau test were removed from analysis.

Assay [2] has as its system Mmp-2, Mmp-9, Mmp-13. The assay is described as follows: Mmp expression in protein treated PlatKO eyes (Example 14). The settings on record: vs BSA treated eyes. The class given is in vivo, mouse. On the procedure: Tissue collection and confirmation of transgene expression: After outflow facility determination in adenovirus treated mice, mCherry expression in the TM was determined in all AdPLAT and AdPLATNE injected eyes. The eyes were dissected on ice to isolate a rim of tissue containing the TM by removing most of the iris and ciliary body. […] After observation, dissected rims were immediately immersed in RNA stabilizing agent (RNAlater, Invitrogen by ThermoFisher Scientific, Waltham, Mass., USA) and frozen. For TM tissue collection following protein treatment, all eyes were flash frozen in liquid nitrogen and subsequently dissected on ice to obtain the angle ring containing the TM tissues as previously described^43. Dissected TM tissues were immersed in RNAlater solution and then snap-frozen and stored at −80° C. until RNA extraction.
RNA isolation and quantitative real time PCR: Tissue collected was pooled (four eyes) and homogenized in TRIzol reagent (Life Technologies, Carlsbad, Calif., USA). RNA was isolated per the manufacturer's instructions and resuspended in nuclease-free water. RNA concentration was determined with a Nanodrop ND-1000 Spectrophotometer (ThermoFisher Scientific, Waltham, Mass., USA). cDNA was synthesized by using High-Capacity cDNA Reverse Transcription Kit (Applied Biosystems, Waltham, Mass., USA) according to manufacturer's protocol. Quantitative real-time PCR (qRT-PCR) was performed by using Green-2-Go qPCR Mastermix-ROX (BioBasic, Amherst, N.Y., USA) on a QuantStudio 6 Flex thermal cycler (Applied Biosystems, Carlsbad, Calif., USA).
mRNA expression of sheep PLAT and mouse Mmp-2, Mmp-9, and Mmp-13 in angle ring tissues was determined. Primers were designed by using Primer-BLAST (https://www.ncbi.nlm.nih.gov/tools/primer-blast/index.cgi?LINK_LOC=BlastHome; in the public domain) and their specificity was confirmed by the presence of a single band of the expected size on agarose gel electrophoresis. […] The relative fold change was calculated by using the ΔΔCt method. […]

As for tissue plasminogen activator [tPA], the Mmp-2 expression result in the assay on Mmp-2, Mmp-9, Mmp-13 [1] (2 days) is on record as “no significant difference”; with Mmp-2, Mmp-9, Mmp-13 [1] (5 days), “no significant difference”; with Mmp-2, Mmp-9, Mmp-13 [2] it was “not significantly different”. Moreover, the Mmp-9 expression entry in the assay with Mmp-2, Mmp-9, Mmp-13 [1] (2 days) is listed as “not detected”; in the assay on Mmp-2, Mmp-9, Mmp-13 [1] (5 days), “higher”; in the assay with Mmp-2, Mmp-9, Mmp-13 [2], “significant upregulation”. The Mmp-13 expression result in the assay on Mmp-2, Mmp-9, Mmp-13 [1] (2 days) is “significantly higher”; in the assay on Mmp-2, Mmp-9, Mmp-13 [1] (5 days), “significantly higher”; in the assay on Mmp-2, Mmp-9, Mmp-13 [2], “significant upregulation”.
